Key:
TYK2 [1] = target: T1, TYK2 (Homo sapiens, UniProt P29597); assay: HEK-Blue IFNα/β reporter assay (SEAP) for TYK2 pseudokinase inhibition; format: cell-based; settings: HEK-Blue IFNα/β cells, 1 ng/mL human recombinant IFNα
How it was run: (§1)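 HEK-Blue cells carrying cytokine receptor and STAT3 or STAT1 SEAP reporter, pretreated 60 min with compound, then stimulated with 10 ng/mL IL-23 (22–24 h) or 1 ng/mL IFNα (16–18 h). SEAP read with QUANTI-Blue; IC50 by non-linear regression versus no-inhibitor and unstimulated controls.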

TYK2 [2] = target: T1, TYK2; assay: HEK-Blue IL-23 reporter assay (SEAP) for TYK2 pseudokinase inhibition; format: cell-based; set-up: HEK-Blue™ IL-23 and IFNα/β cells with a stably-integrated cytokine receptor and STAT3 or STAT1; host or cells: HEK-Blue IL-23 / HEK-Blue IFNα/β cells (HEK293 background); settings: HEK-Blue IL-23 cells, 10 ng/mL human recombinant IL-23, SEAP reporter; read-out: IL23 IC50
How it was run: as §1

T1 sequence (P29597 whole entry): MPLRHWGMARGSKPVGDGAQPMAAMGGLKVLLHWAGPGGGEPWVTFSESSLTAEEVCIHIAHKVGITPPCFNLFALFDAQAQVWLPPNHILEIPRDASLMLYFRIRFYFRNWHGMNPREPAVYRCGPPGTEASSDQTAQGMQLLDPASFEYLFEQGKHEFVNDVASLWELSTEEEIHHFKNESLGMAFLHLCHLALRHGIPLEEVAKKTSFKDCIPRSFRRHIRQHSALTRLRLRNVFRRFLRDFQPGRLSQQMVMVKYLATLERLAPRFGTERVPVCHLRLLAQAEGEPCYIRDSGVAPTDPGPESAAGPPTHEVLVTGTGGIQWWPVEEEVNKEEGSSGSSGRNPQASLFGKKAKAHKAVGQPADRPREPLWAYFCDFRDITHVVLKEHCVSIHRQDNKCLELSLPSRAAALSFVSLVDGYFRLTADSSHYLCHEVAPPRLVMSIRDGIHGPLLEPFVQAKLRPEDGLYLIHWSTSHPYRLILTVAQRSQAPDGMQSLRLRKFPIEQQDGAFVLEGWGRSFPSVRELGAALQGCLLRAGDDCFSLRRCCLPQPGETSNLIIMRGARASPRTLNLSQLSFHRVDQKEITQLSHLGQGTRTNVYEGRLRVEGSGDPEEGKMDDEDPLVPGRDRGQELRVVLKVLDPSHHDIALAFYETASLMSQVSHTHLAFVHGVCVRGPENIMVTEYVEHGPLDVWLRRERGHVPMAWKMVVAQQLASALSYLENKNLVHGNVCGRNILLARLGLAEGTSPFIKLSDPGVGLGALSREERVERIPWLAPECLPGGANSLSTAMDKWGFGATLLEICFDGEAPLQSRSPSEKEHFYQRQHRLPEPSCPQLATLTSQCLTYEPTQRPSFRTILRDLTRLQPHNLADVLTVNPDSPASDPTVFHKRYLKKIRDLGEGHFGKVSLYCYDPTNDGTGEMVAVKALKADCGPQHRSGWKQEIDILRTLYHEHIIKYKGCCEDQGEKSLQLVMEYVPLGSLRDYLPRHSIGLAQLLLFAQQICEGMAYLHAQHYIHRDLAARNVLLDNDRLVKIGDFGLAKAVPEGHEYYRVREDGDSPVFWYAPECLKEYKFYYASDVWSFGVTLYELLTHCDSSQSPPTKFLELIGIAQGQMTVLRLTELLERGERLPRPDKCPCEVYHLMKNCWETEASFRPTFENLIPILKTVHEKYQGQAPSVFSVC

## CC(C)(C)OC(=O)Nc1cc2c(cn1)c(=O)[nH]n2-c1ccccc1 [Compound I-35, tert-butyl N-{3-oxo-1-phenyl-1H,2H,3H-pyrazolo[4,3-c]pyridin-6-yl}carbamate]
TYK2 [1]
  IC50: > 90 µM
TYK2 [2]
  IC50: > 90 µM

## COc1cccc(-n2[nH]c(=O)c3c(N)nc(Nc4cc(C)nc(C)n4)cc32)c1 [Compound I-116, 4-amino-6-((2,6-dimethylpyrimidin-4-yl)amino)-1-(3-methoxyphenyl)-1,2-dihydro-3H-pyrazolo[4,3-c]pyridin-3-one]
TYK2 [1]
  IC50: 30 to 90 µM
TYK2 [2]
  IC50: < 10 µM

## COc1cc(-n2[nH]c(=O)c3cnc(Nc4ccc(F)cn4)cc32)ccc1Cl [Compound I-79, 1-(4-chloro-3-methoxyphenyl)-6-((5-fluoropyridin-2-yl)amino)-1,2-dihydro-3H-pyrazolo[4,3-c]pyridin-3-one]
TYK2 [1]
  IC50: > 90 µM
TYK2 [2]
  IC50: > 90 µM

## COc1cccc(-n2[nH]c(=O)c3cnc(Nc4cc(C#N)ccn4)cc32)c1 [Compound I-44, 2-((1-(3-methoxyphenyl)-3-oxo-2,3-dihydro-1H-pyrazolo[4,3-c]pyridin-6-yl)amino)isonicotinonitrile]
TYK2 [1]
  IC50: < 10 µM
TYK2 [2]
  IC50: < 10 µM

## Cc1cc(Nc2cc3c(cn2)c(=O)[nH]n3-c2cccc(CO)c2)nc(C)n1 [Compound I-117, 6-((2,6-dimethylpyrimidin-4-yl)amino)-1-(3-(hydroxymethyl)phenyl)-1,2-dihydro-3H-pyrazolo[4,3-c]pyridin-3-one]
TYK2 [1]
  IC50: 10 to 30 µM
TYK2 [2]
  IC50: < 10 µM

## COc1cc(-n2[nH]c(=O)c3cnc(NC(=O)C4CC4)cc32)ccc1C#N [Compound I-82, N-(1-(4-cyano-3-methoxyphenyl)-3-oxo-2,3-dihydro-1H-pyrazolo[4,3-c]pyridin-6-yl)cyclopropanecarboxamide]
TYK2 [1]
  IC50: 10 to 30 µM
TYK2 [2]
  IC50: < 10 µM

## O=C(Nc1cc2c(cn1)c(=O)[nH]n2-c1cccc(F)c1)C1CC1 [Compound I-61, N-(1-(3-fluorophenyl)-3-oxo-2,3-dihydro-1H-pyrazolo[4,3-c]pyridin-6-yl)cyclopropanecarboxamide]
TYK2 [1]
  IC50: < 10 µM
TYK2 [2]
  IC50: < 10 µM

## O=C(Nc1cc2c(cn1)c(=O)[nH]n2-c1cc(Cl)cc(Cl)c1)C1CC1 [Compound I-98, N-(1-(3,5-dichlorophenyl)-3-oxo-2,3-dihydro-1H-pyrazolo[4,3-c]pyridin-6-yl)cyclopropanecarboxamide]
TYK2 [1]
  IC50: > 90 µM
TYK2 [2]
  IC50: < 10 µM

## Cc1cc(Nc2cc3c(cn2)c(=O)[nH]n3-c2ccc3cn(C)nc3c2)nc(C)n1 [Compound I-121, 6-((2,6-dimethylpyrimidin-4-yl)amino)-1-(2-methyl-2H-indazol-6-yl)-1,2-dihydro-3H-pyrazolo[4,3-c]pyridin-3-one]
TYK2 [1]
  IC50: < 10 µM
TYK2 [2]
  IC50: < 10 µM

## Cc1cc(Nc2cc3c(cn2)c(=O)[nH]n3-c2ccccc2S(C)(=O)=O)nc(C)n1 [Compound I-20, 6-((2,6-dimethylpyrimidin-4-yl)amino)-1-(2-(methylsulfonyl)phenyl)-1,2-dihydro-3H-pyrazolo[4,3-c]pyridin-3-one]
TYK2 [1]
  IC50: 30 to 90 µM
TYK2 [2]
  IC50: 10 to 30 µM

## CCc1ccccc1-n1[nH]c(=O)c2cnc(Nc3ccc(F)cn3)cc21 [Compound I-109, 1-(2-ethylphenyl)-6-((5-fluoropyridin-2-yl)amino)-1,2-dihydro-3H-pyrazolo[4,3-c]pyridin-3-one]
TYK2 [1]
  IC50: > 90 µM
TYK2 [2]
  IC50: > 90 µM

## COc1cc(-n2[nH]c(=O)c3cnc(Nc4ccc(F)cn4)cc32)ccn1 [Compound I-84, 6-((5-fluoropyridin-2-yl)amino)-1-(2-methoxypyridin-4-yl)-1,2-dihydro-3H-pyrazolo[4,3-c]pyridin-3-one]
TYK2 [1]
  IC50: < 10 µM
TYK2 [2]
  IC50: < 10 µM

## COc1cccc(-n2[nH]c(=O)c3cnc(Nc4ccccn4)cc32)c1 [Compound I-50, 1-(3-methoxyphenyl)-6-(pyridin-2-ylamino)-1,2-dihydro-3H-pyrazolo[4,3-c]pyridin-3-one]
TYK2 [1]
  IC50: < 10 µM
TYK2 [2]
  IC50: < 10 µM

## CCc1ccccc1-n1[nH]c(=O)c2cnc(Nc3cc(C)nc(C)n3)cc21 [Compound I-108, 6-((2,6-dimethylpyrimidin-4-yl)amino)-1-(2-ethylphenyl)-1,2-dihydro-3H-pyrazolo[4,3-c]pyridin-3-one]
TYK2 [1]
  IC50: 10 to 30 µM
TYK2 [2]
  IC50: < 10 µM

## COc1cccc(-n2[nH]c(=O)c3cnc(NC(=O)C4CC4)cc32)c1 [Compound I-54, N-(1-(3-methoxyphenyl)-3-oxo-2,3-dihydro-1H-pyrazolo[4,3-c]pyridin-6-yl)cyclopropanecarboxamide]
TYK2 [1]
  IC50: < 10 µM
TYK2 [2]
  IC50: < 10 µM

## COc1cccc(-n2[nH]c(=O)c3cnc(Nc4ccc(F)cn4)cc32)c1 [Compound I-39, 6-((5-fluoropyridin-2-yl)amino)-1-(3-methoxyphenyl)-1,2-dihydro-3H-pyrazolo[4,3-c]pyridin-3-one]
TYK2 [1]
  IC50: < 10 µM
TYK2 [2]
  IC50: < 10 µM

## Cc1cc(Nc2cc3c(cn2)c(=O)[nH]n3-c2cccc(C#N)c2)nc(C)n1 [Compound I-18, 3-(6-((2,6-dimethylpyrimidin-4-yl)amino)-3-oxo-2,3-dihydro-1H-pyrazolo[4,3-c]pyridin-1-yl)benzonitrile]
TYK2 [1]
  IC50: 10 to 30 µM
TYK2 [2]
  IC50: < 10 µM

## COc1cc(-n2[nH]c(=O)c3cnc(Nc4cc(C)nc(C)n4)cc32)ccc1F [Compound I-76, 6-((2,6-dimethylpyrimidin-4-yl)amino)-1-(4-fluoro-3-methoxyphenyl)-1,2-dihydro-3H-pyrazolo[4,3-c]pyridin-3-one]
TYK2 [1]
  IC50: < 10 µM
TYK2 [2]
  IC50: < 10 µM

## COc1cccc(-n2[nH]c(=O)c3cnc(Nc4cc(C)ncn4)cc32)c1 [Compound I-47, 1-(3-methoxyphenyl)-6-((6-methylpyrimidin-4-yl)amino)-1,2-dihydro-3H-pyrazolo[4,3-c]pyridin-3-one]
TYK2 [1]
  IC50: < 10 µM
TYK2 [2]
  IC50: > 90 µM

## Cn1cc(Nc2cc3c(cn2)c(=O)[nH]n3-c2ccccc2)cn1 [Compound I-5, 6-((1-methyl-1H-pyrazol-4-yl)amino)-1-phenyl-1,2-dihydro-3H-pyrazolo[4,3-c]pyridin-3-one]
TYK2 [1]
  IC50: 30 to 90 µM
TYK2 [2]
  IC50: 10 to 30 µM

## COc1cccc(-n2[nH]c(=O)c3cnc(Nc4ccc(F)cn4)cc32)c1F [Compound I-38, 1-(2-fluoro-3-methoxyphenyl)-6-((5-fluoropyridin-2-yl)amino)-1,2-dihydro-3H-pyrazolo[4,3-c]pyridin-3-one]
TYK2 [1]
  IC50: 10 to 30 µM
TYK2 [2]
  IC50: < 10 µM

## COc1c(-c2ncn(C)n2)cccc1-n1[nH]c(=O)c2cnc(Nc3cc(C)nc(C)n3)cc21 [Compound I-22, 6-[(2,6-dimethylpyrimidin-4-yl)amino]-1-[2-methoxy-3-(1-methyl-1H-1,2,4-triazol-3-yl)phenyl]-1H,2H,3H-pyrazolo[4,3-c]pyridin-3-one]
TYK2 [1]
  IC50: 10 to 30 µM
TYK2 [2]
  IC50: < 10 µM

Source: patent US12668594B2, “TYK2 inhibitors and uses thereof” (Sudo Biosciences Limited, priority 2020, dated 2026)
